From US9999222B2, “Herbicidal combination comprising azines” (BASF SE, priority 2014, dated 2018)
Where “and” joins values, the source holds several entries; their conditions need not be identical. Equal entries are not always repeated. Where two headings read alike, the source gives them in different places.

Experiments:
Assay in all cases: Greenhouse test, pre-emergence treatment
ALOMY = format: in vivo, Alopecurus myosuroides; conditions: Alopecurus myosuroides, pre-emergence, 480 h
From the text: (§1) The culture containers used were plastic flowerpots containing loamy sand with approximately 3.0% of humus as the substrate. The seeds of the test plants were sown separately for each species.
(§2) For the pre-emergence treatment, the active ingredients, which had been suspended or emulsified in water, were applied directly after sowing by means of finely distributing nozzles. The containers were irrigated gently to promote germination and growth and subsequently covered with transparent plastic hoods until the plants had rooted. This cover caused uniform germination of the test plants, unless this had been impaired by the active ingredients.
(§3) Depending on the species, the plants were kept at 10-25° C. or 20-35° C., respectively.
(§4) The test period extended over 2 to 4 weeks. During this time, the plants were tended, and their response to the individual treatments was evaluated.
(§5) Evaluation was carried out using a scale from 0 to 100. 100 means no emergence of the plants, or complete destruction of at least the aerial moieties, and 0 means no damage, or normal course of growth. A moderate herbicidal activity is given at values of at least 60, a good herbicidal activity is given at values of at least 70, and a very good herbicidal activity is given at values of at least 85.
(§6) The respective stated components a and b, and if appropriate, c were formulated as a 10% by weight strength emulsion concentrate and, with addition of the amount of solvent system, introduced into the spray liquor used for applying the active compound.
(§7) In the examples, the solvent used was water.
(§8) In the examples below, using the method of S. R. Colby (1967) “Calculating synergistic and antagonistic responses of herbicide combinations”, Weeds 15, p. 22ff., the value E, which is expected if the activity of the individual active compounds is only additive, was calculated. E=X+Y−(X·Y/100) where • X=percent activity using active compound a at an application rate A; • Y=percent activity using active compound b at an application rate B; • E=expected activity (in %) by a+b at application rates A+B.
(§9) If the value found experimentally is higher than the value E calculated according to Colby, a synergistic effect is present.

COMBE = format: in vivo, Commelina benghalensis; conditions: Commelina benghalensis, pre-emergence, 480 h
From the text: as §1, §2, §3, §4, §5, §6, §7, §8, §9

POLCO = format: in vivo, Polygonum convolvulus; conditions: pre-emergence
From the text: as §1, §2, §3, §4, §5, §6, §7, §8, §9

EPHHL = format: in vivo, Euphorbia heterophylla; conditions: pre-emergence
From the text: as §1, §2, §3, §4, §5, §6, §7, §8, §9

SIDRH = format: in vivo, Sida rhombifolia; conditions: Sida rhombifolia, pre-emergence, 480 h
From the text: as §1, §2, §3, §4, §5, §6, §7, §8, §9

GERPU = format: in vivo, Geranium pusillum; conditions: Geranium pusillum, pre-emergence, 480 h
From the text: as §1, §2, §3, §4, §5, §6, §7, §8, §9

KCHSC = format: in vivo, Kochia scoparia; conditions: pre-emergence
From the text: as §1, §2, §3, §4, §5, §6, §7, §8, §9

ABUTH = format: in vivo, Abutilon theophrasti; conditions: Abutilon theophrasti, 480 h
From the text: as §1, §2, §3, §4, §5, §6, §7, §8, §9

IPOHE = format: in vivo, Ipomoea hederacea; conditions: Ipomoea hederacea, 480 h
From the text: as §1, §2, §3, §4, §5, §6, §7, §8, §9

CENCY = format: in vivo; conditions: 480 h, individual, read-out: observed % activity 20 DAT
GALAP = format: in vivo, Galium aparine; conditions: pre-emergence
From the text: as §1, §2, §3, §4, §5, §6, §7, §8, §9

SETFA = format: in vivo, Setaria faberi; conditions: SETFA, use rate 25 g ai/ha, 20 DAT
From the text: as §1, §2, §3, §4, §5, §6, §7, §8, §9

ANTAR = format: in vivo; conditions: Anthemis arvensis, 480 h, 20 DAT, read-out: observed % activity
From the text: as §1, §2, §3, §4, §5, §6, §7, §8, §9

[1] = 375 g ai/ha, 20 DAT, read-out: observed % activity
[2] = 750 g ai/ha, 20 DAT, read-out: observed % activity
[3] = 20 g ai/ha, 20 DAT, read-out: observed % activity
[4] = 40 g ai/ha, 20 DAT, read-out: observed % activity
[5] = 15 g ai/ha, read-out: observed % activity 20 DAT
[6] = 30 g ai/ha, read-out: observed % activity 20 DAT

For `O=C(O)CNCP(=O)(O)O` [Glyphosate, glyphosate], the inhibition at 125 g/ha (ALOMY; read-out: observed % activity 20 DAT) was 0%.
`CC(C)c1ccc(NC(=O)N(C)C)cc1` [Isoproturon, isoproturon] showed an inhibition at 375 g/ha (COMBE; [1]) of 0%, an inhibition at 750 g/ha (COMBE; [2]) of 45% and an inhibition at 250 g/ha (COMBE; COMBE, individual, use rate 250 g ai/ha, read-out: observed % activity 20 DAT) of 0%. For the same molecule, the inhibition at 500 g/ha (COMBE; COMBE, individual, use rate 500 g ai/ha, read-out: observed % activity 20 DAT) was 10%, the inhibition at 375 g/ha (POLCO; Fallopia convolvulus, 480 h, 375 g ai/ha, 20 DAT, read-out: observed % activity) was 0% and the inhibition at 750 g/ha (POLCO; Fallopia convolvulus, 480 h, 750 g ai/ha, 20 DAT, read-out: observed % activity) was 25%. The inhibition at 250 g/ha (POLCO; Fallopia convolvulus, 480 h, POLCO, individual, use rate 250 g ai/ha, read-out: observed % activity 20 DAT) was 10%, the “observed % activity 20 DAT” value (EPHHL; EPHHL, individual, use rate 250 g ai/ha) was 10% and 25% and the inhibition at 500 g/ha (EPHHL; Euphorbia heterophylla, 480 h, EPHHL, individual, use rate 500 g ai/ha, read-out: observed % activity 20 DAT) was 35%. It also gave an inhibition at 375 g/ha (SIDRH; [1]) of 0%, an inhibition at 250 g/ha (SIDRH; SIDRH, individual, use rate 250 g ai/ha, read-out: observed % activity 20 DAT) of 0% and an inhibition at 500 g/ha (SIDRH; SIDRH, individual, use rate 500 g ai/ha, read-out: observed % activity 20 DAT) of 40%. The inhibition at 375 g/ha (GERPU; [1]) was 20%, the inhibition at 750 g/ha (GERPU; [2]) was 40% and the inhibition at 500 g/ha (GERPU; GERPU, individual, use rate 500 g ai/ha, read-out: observed % activity 20 DAT) was 0%. It also gave an inhibition at 750 g/ha (KCHSC; Bassia scoparia, 480 h, 750 g ai/ha, 20 DAT, read-out: observed % activity) of 98%, an inhibition at 250 g/ha (KCHSC; Bassia scoparia, 480 h, KCHSC, individual, use rate 250 g ai/ha, read-out: observed % activity 20 DAT) of 98% and an inhibition at 500 g/ha (KCHSC; Bassia scoparia, 480 h, KCHSC, individual, use rate 500 g ai/ha, read-out: observed % activity 20 DAT) of 98%. It also gave an inhibition at 375 g/ha (ABUTH; [1]) of 20%, an inhibition at 750 g/ha (ABUTH; [2]) of 65% and an inhibition at 250 g/ha (ABUTH; ABUTH, individual, use rate 250 g ai/ha, read-out: observed % activity 20 DAT) of 50%. It also gave an inhibition at 500 g/ha (ABUTH; ABUTH, individual, use rate 500 g ai/ha, read-out: observed % activity 20 DAT) of 15%, an inhibition at 750 g/ha (IPOHE; [2]) of 40% and an inhibition at 250 g/ha (CENCY; use rate 250 g ai/ha) of 30%. For the same molecule, the inhibition at 500 g/ha (CENCY; use rate 500 g ai/ha) was 30%, the “observed % activity 20 DAT” value (GALAP; GALAP, individual, use rate 500 g ai/ha) was 65% and 15% and the inhibition at 250 g/ha (GALAP; Galium aparine, 480 h, GALAP, individual, use rate 250 g ai/ha, read-out: observed % activity 20 DAT) was 30%.
For `O=C(Nc1ccc(F)cc1)c1cccc(Oc2cccc(C(F)(F)F)c2)n1` [Picolinafen, picolinafen], the “observed % activity 20 DAT” value (POLCO; POLCO, use rate 25 g ai/ha, 20 DAT) was 0%, the “observed % activity 20 DAT” value (POLCO; POLCO, use rate 50 g ai/ha, 20 DAT) was 0% and the “observed % activity 20 DAT” value (SETFA) was 10%. For the same molecule, the “observed % activity 20 DAT” value (KCHSC; KCHSC, use rate 50 g ai/ha, 20 DAT) was 30%.
Molecule `CCOCN(C(=O)CCl)c1c(C)cccc1CC` [acetochlor] has an inhibition at 125 g/ha (ALOMY; 125 g ai/ha, 20 DAT, read-out: observed % activity) of 0%, an inhibition at 125 g/ha (KCHSC; Bassia scoparia, 480 h, 125 g ai/ha, 20 DAT, read-out: observed % activity) of 0% and an inhibition at 125 g/ha (GALAP; Galium aparine, 480 h, 125 g ai/ha, 20 DAT, read-out: observed % activity) of 60%.
In the case of `CCc1cnc(C2=NC(C)(C(C)C)C(=O)N2)c(C(=O)O)c1` (stereo not shown) [imazethapyr], the inhibition at 20 g/ha (ANTAR; 20 g ai/ha) is reported as 30%, the inhibition at 40 g/ha (ANTAR; 40 g ai/ha) is reported as 30% and the inhibition at 20 g/ha (COMBE; [3]) is reported as 45%. The inhibition at 40 g/ha (COMBE; [4]) was 65%, the inhibition at 15 g/ha (COMBE; [5]) was 0% and the inhibition at 30 g/ha (COMBE; [6]) was 35%. For the same molecule, the inhibition at 20 g/ha (POLCO; Fallopia convolvulus, 480 h, 20 g ai/ha, 20 DAT, read-out: observed % activity) was 35%, the inhibition at 40 g/ha (POLCO; Fallopia convolvulus, 480 h, 40 g ai/ha, 20 DAT, read-out: observed % activity) was 90% and the inhibition at 15 g/ha (POLCO; Fallopia convolvulus, 480 h, 15 g ai/ha, read-out: observed % activity 20 DAT) was 30%. The inhibition at 30 g/ha (POLCO; Fallopia convolvulus, 480 h, 30 g ai/ha, read-out: observed % activity 20 DAT) was 65%, the “observed % activity 20 DAT” value (POLCO; 30 g ai/ha) was 60% and the inhibition at 30 g/ha (EPHHL; Euphorbia heterophylla, 480 h, 30 g ai/ha, read-out: observed % activity 20 DAT) was 65%. For the same molecule, the inhibition at 20 g/ha (SIDRH; [3]) was 45%, the inhibition at 40 g/ha (SIDRH; [4]) was 80% and the inhibition at 15 g/ha (SIDRH; [5]) was 15%. The inhibition at 30 g/ha (SIDRH; [6]) was 60%, the inhibition at 20 g/ha (GERPU; [3]) was 20% and the inhibition at 40 g/ha (GERPU; [4]) was 85%. The inhibition at 15 g/ha (GERPU; [5]) was 30%, the inhibition at 30 g/ha (GERPU; [6]) was 30% and the inhibition at 15 g/ha (KCHSC; Bassia scoparia, 480 h, 15 g ai/ha, read-out: observed % activity 20 DAT) was 70%. For the same molecule, the inhibition at 30 g/ha (KCHSC; Bassia scoparia, 480 h, 30 g ai/ha, read-out: observed % activity 20 DAT) was 85%, the inhibition at 15 g/ha (ABUTH; [5]) was 0% and the inhibition at 20 g/ha (ABUTH; [3]) was 60%. The inhibition at 30 g/ha (ABUTH; [6]) was 15%, the inhibition at 40 g/ha (ABUTH; [4]) was 80% and the inhibition at 30 g/ha (IPOHE; [6]) was 0%. It also gave an inhibition at 15 g/ha (GALAP; Galium aparine, 480 h, 15 g ai/ha, read-out: observed % activity 20 DAT) of 50% and an inhibition at 30 g/ha (GALAP; Galium aparine, 480 h, 30 g ai/ha, read-out: observed % activity 20 DAT) of 60%.
